Results taken from PubChem BioAssay (NCI).
Values joined by “and” are separate entries in the source; they are usually repeats but may differ in a detail not shown here. Equal entries are not always repeated.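 Where inhibition never reached the appropriate level, the endpoint shown equals the highest concentration tested. Otherwise, values were interpolated linearly from a five-concentration, 48-hour dose response in 96-well plates. GI50: concentration for 50% inhibition of growth. TGI denotes the concentration required for complete inhibition of growth.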 Where a SMILES comes first, the peptide text is derived from it. [ ]: non-standard residue; d: D form. Phe(F5) = N[CH](Cc1c(F)c(F)c(F)c(F)c1F)C(=O)O

Assays:
Experiment in all cases: inhibition of tumour cell growth, NCI panel, 48 h
A498 renal = test system: A498 renal
BT-549 breast = test system: BT-549 breast
IGROV1 ovarian = test system: IGROV1 ovarian
KM12 colon = test system: KM12 colon
MALME-3M melanoma = test system: MALME-3M melanoma
SK-OV-3 ovarian = test system: SK-OV-3 ovarian
SNB-19 CNS = test system: SNB-19 CNS
TK-10 renal = test system: TK-10 renal
RXF 393 renal = test system: RXF 393 renal
NCI-H226 lung = test system: NCI-H226 lung

Compound | GI50 (A498 renal) | TGI (A498 renal) | GI50 (BT-549 breast) [µM] | TGI (BT-549 breast) | GI50 (IGROV1 ovarian) | TGI (IGROV1 ovarian) [µM] | GI50 (KM12 colon) [µM] | TGI (KM12 colon) | GI50 (MALME-3M melanoma) [µM] | TGI (MALME-3M melanoma) | GI50 (SK-OV-3 ovarian) | TGI (SK-OV-3 ovarian) | GI50 (SNB-19 CNS) [µM] | TGI (SNB-19 CNS) [µM] | GI50 (TK-10 renal) | TGI (TK-10 renal) [µM] | TGI (RXF 393 renal) [µM] | TGI (NCI-H226 lung) [µM] | GI50 (RXF 393 renal) [µM] | GI50 (NCI-H226 lung) [µM]
CCN=C1C=CC(=C(c2ccc(N(C)C)cc2)c2ccc(N(C)C)cc2)c2ccccc21 | 0.16 µM | 0.453 µM | 0.0868 | 0.489 µM | 0.0701 µM | 0.711 | 0.0383 | 0.18 µM | 0.026 | 0.0855 µM | 0.105 µM | 0.455 µM | 0.217 | 4.21 | 0.0913 µM | 1.31 | – | – | – | –
CN(C)c1ccc2c(NCCCCCCNc3ccnc4cc(N(C)C)ccc34)ccnc2c1 | – | 95.8 µM | – | – | – | – | – | > 100 µM | – | 12.9 µM | – | > 100 µM | – | 16.4 | – | 32.2 | 38.4 | – | – | –
Nc1cc(=O)[nH]c(SC2=NC(N)CC(O)C2)n1 (stereo not given) | – | – | – | – | – | > 100 | – | > 100 µM | – | > 100 µM | – | > 100 µM | – | > 100 | – | > 100 | – | > 100 | – | –
COC(=O)C(CC(C)C)NC(=O)C(Cc1cnc[nH]1)NC(=O)CNC(=O)C(NC(=O)C(C)NC(=O)C(Cc1c[nH]c2ccccc12)NC(=O)C(CCC(=O)O)NC(=O)C(N)Cc1c(F)c(F)c(F)c(F)c1F)C(C)C (stereo not given) (H-[Phe(F5)]EWAVGHL-OMe; configuration not given here) | > 100 µM | > 100 µM | – | – | > 100 µM | > 100 | > 100 | > 100 µM | – | > 12.5 µM | – | > 12.5 µM | – | > 100 | – | – | > 100 | > 12.5 | > 100 | –
CCOP(=O)(OCC)C1CCCCOC1=O (stereo not given) | – | > 100 µM | – | – | – | > 100 | – | > 100 µM | – | > 100 µM | – | > 100 µM | – | > 100 | – | > 100 | > 100 | – | – | –
O=C1C(Cl)=C(N/N=c2/[nH][nH]/c(=N/NC3=C(Cl)C(=O)c4ccccc4C3=O)c3ccccc23)C(=O)c2ccccc21 | 11.5 µM | 24 µM | 13.5 | 26.8 µM | 17.7 µM | 48.5 | 5.16 | 20.7 µM | – | – | 15.3 µM | 29.5 µM | 14.6 | 31.1 | – | – | – | 44 | – | 17.8
CC(=O)[O][Pb]([O]C(C)=O)([c]1ccccc1)[c]1ccccc1 | 23.4 µM | > 100 µM | – | – | 5.98 µM | > 100 | 12.6 | > 100 µM | > 100 | > 100 µM | 28.1 µM | > 100 µM | 23.8 | 46.6 | > 53.1 µM | > 100 | 5.69 | > 100 | 1.41 | 64.2
C=C1C(=O)O[C@@H]2C1CC(=O)C(C)CC/C=C(\C)CCC[C@H](C)[C@H]2OC(C)=O (stereo not given in full) | 20.7 µM | 35.4 µM | 13 | 30.2 µM | 10.1 µM | 26.3 | 12.8 | 29.1 µM | – | – | 17 µM | 34.1 µM | 25.5 | > 100 | 1.79 µM | 8.43 | 24.4 | 30.5 | 7.9 | 15.1
CC(=O)OC1c2ccccc2CC2(OC(C)=O)c3ccccc3C12 (stereo not given) | – | > 100 µM | – | – | – | > 100 | – | > 100 µM | – | > 100 µM | – | > 100 µM | – | > 100 | – | > 100 | > 100 | > 100 | – | –
C=C1C(=O)O[C@H]2C[C@@H](C)[C@@H]3CC(=O)OC[C@@]3(C)CC12 (stereo not given in full) | – | – | – | – | – | > 100 | – | 62 µM | – | 35 µM | – | > 100 µM | – | > 100 | – | 55.2 | – | – | – | –
CN(C)CCCNC(=O)c1cc(NC(=O)CCNS(=O)(=O)c2ccc3c(c2)C(=O)c2ccccc2C3=O)cn1C | > 100 µM | > 100 µM | > 100 | > 100 µM | > 100 µM | > 100 | > 100 | > 100 µM | – | – | > 100 µM | > 100 µM | > 100 | > 100 | > 100 µM | > 100 | > 100 | > 100 | > 100 | > 100
CC1CC2C(=O)NC(=O)C2c2[nH]c3ccccc3c21 (stereo not given) | – | – | – | – | – | > 100 | – | > 100 µM | – | > 100 µM | – | > 100 µM | – | – | – | – | – | > 100 | – | –
COc1ccccc1[N-]C(C1=C([O-])c2ccccc2C1=O)c1ccccc1.COc1ccccc1[N-]C(C1=C([O-])c2ccccc2C1=O)c1ccccc1.[Cu+2] (stereo not given) | 14.7 µM | 53.7 µM | – | – | 9.3 µM | > 100 | 5.76 | 43.1 µM | 6.85 | > 100 µM | 2.09 µM | 6.57 µM | 23.8 | 81.8 | 31.7 µM | 68.3 | – | – | – | –
CCc1ccc(NCc2cc(OC)c(OC)c(OC)c2)cc1 | 2.28 µM and 3.85 µM | 20.6 µM and 49 µM | – | > 100 µM and 34.8 µM | 1.32 µM and 0.615 µM | > 66.2 | – | 20.8 µM and 13.8 µM | – | 30.8 µM and 35.6 µM | 0.315 µM and 0.152 µM | 9.02 µM and 16.9 µM | 1.14 | > 100 | 24.6 µM and 10.7 µM | > 100 | – | > 85 | – | –
CN1CCc2c1nc(-c1ccccc1)c1c2N(C)CC1 | – | > 100 µM | – | – | – | > 100 | – | > 100 µM | – | > 100 µM | – | > 100 µM | – | > 100 | – | > 100 | > 100 | – | – | –
CCCC(O)[C@@H](O)c1ccc2c(c1O)C(=O)c1c(OC)cccc1C2=O (stereo not given in full) | – | > 100 µM | – | – | – | > 100 | – | > 100 µM | – | 90.3 µM | – | > 100 µM | – | > 100 | – | > 100 | – | > 100 | – | –
C=CCC(N[C@H](CO)C(C)C)c1cn(C(=O)OCC)c2ccccc12 (stereo not given in full) | – | – | 24.7 | 67.8 µM | 7.81 µM | 57.1 | 21.7 | 59.7 µM | – | – | 81.3 µM | > 100 µM | 59.9 | > 100 | 13.7 µM | 44.1 | 54.2 | – | 18.9 | –
CC1(C)CCC2(C(=O)OC3OC(CO)C(O)C(O)C3O)CC[C@]3(C)C(=CCC4C5(C)CC[C@H](OC6OC(C(=O)O)C(O)C(O)C6O)C(C)(C)C5CCC43C)C2C1 (stereo not given in full) | – | – | 1.7 | 25.8 µM | 1.7 µM | > 50 | 2.08 | 9.47 µM | – | – | – | – | 1.44 | 8.39 | 1.85 µM | 10.3 | > 50 | 6.31 | 1.65 | 1.49
